Measurements as given in patent US20100029665A1, “Methods and Compositions for Treating Migraine Pain” (priority 2004, published 2010).

What was measured:
[1] = head of release table, Example 3; cited from earlier work
[2] = Release profile (cumulative fraction released) of a memantine and dihydroergotamine combination, USP II Paddle system, water; format: physicochemical
Description: The cumulative fraction is the amount of drug substance released from the formulation matrix to the serum or gut environment (e.g., U.S. Pat. No. 4,839,177) or as measured with a USP II Paddle system using water as the dissolution medium.

[3] = humans; cited from earlier work

Row | SMILES | T½ [1] | cum. fraction ([2]; Time 1) | cum. fraction ([2]; Time 2) | cum. fraction ([2]; Time 4) | cum. fraction ([2]; Time 8) | cum. fraction ([2]; Time 12) | cum. fraction ([2]; Time 16) | cum. fraction ([2]; Time 20) | cum. fraction ([2]; Time 24) | Dose Dependent Tox [3]
1 | CN1C[C@H](C(=O)N[C@]2(C)O[C@@]3(O)[C@@H]4CCCN4C(=O)[C@H](Cc4ccccc4)N3C2=O)C[C@@H]2c3cccc4[nH]cc(c34)C[C@H]21 [DIHYDROERGOTAMINE, dihydroergotamine] | T½ = 15 hrs | 0.15 | 0.30 | 0.45 | 0.60 | 0.75 | 0.90 | 0.98 | 0.99 | –
2 | CC12CC3CC(C)(C1)CC(N)(C3)C2 [Memantine, 1-amino-3,5-dimethyladamantane] | – | 0.15 | 0.30 | 0.45 | 0.60 | 0.75 | 0.90 | 0.98 | 0.99 | –
3 | CC(N)C12CC3CC(CC(C3)C1)C2 (stereo not drawn) [Rimantadine, 1-(1-aminoethyl)adamantane] | – | – | – | – | – | – | – | – | – | Insomnia
